Assay [1] has as its target T1, panel of 442 kinases (Homo sapiens, UniProt Q7L7X3).
T1 construct: purchased KINOMEscan
T1 sequence (Q7L7X3 1-1001): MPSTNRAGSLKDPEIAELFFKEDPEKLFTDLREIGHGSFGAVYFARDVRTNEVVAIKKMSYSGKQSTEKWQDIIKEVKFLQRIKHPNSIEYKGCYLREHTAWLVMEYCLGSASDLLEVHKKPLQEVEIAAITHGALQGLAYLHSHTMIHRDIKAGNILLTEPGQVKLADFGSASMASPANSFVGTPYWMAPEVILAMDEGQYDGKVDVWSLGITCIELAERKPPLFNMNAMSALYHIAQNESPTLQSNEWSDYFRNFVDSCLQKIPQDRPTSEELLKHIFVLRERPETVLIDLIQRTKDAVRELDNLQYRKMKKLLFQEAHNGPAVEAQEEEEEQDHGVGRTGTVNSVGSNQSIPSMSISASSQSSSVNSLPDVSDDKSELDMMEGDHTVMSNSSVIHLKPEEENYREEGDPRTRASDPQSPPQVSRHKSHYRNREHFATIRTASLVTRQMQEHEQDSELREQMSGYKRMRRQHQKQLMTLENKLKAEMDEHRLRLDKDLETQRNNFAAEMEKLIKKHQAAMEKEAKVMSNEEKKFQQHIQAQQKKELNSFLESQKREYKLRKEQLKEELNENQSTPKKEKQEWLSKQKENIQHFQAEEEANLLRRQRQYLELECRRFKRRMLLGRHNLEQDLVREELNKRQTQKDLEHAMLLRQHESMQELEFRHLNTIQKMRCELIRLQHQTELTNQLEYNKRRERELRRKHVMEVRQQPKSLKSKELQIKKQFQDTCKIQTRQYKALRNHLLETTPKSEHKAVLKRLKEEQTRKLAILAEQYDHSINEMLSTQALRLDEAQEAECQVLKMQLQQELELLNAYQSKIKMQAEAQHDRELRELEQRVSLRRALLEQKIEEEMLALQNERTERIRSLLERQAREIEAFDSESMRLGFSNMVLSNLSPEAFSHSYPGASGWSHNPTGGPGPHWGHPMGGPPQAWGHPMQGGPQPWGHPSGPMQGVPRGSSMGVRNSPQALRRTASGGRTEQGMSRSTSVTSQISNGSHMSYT
The assay is classed as binding. Conditions: kinase TAOK1; compound concentration 10 µM. The text has this:
(§1) We assessed the selectivity of members of this scaffold using the KINOMEscan methodology across a near comprehensive panel of 442 kinases [[18,27]].

For assay [2], the target named is T2, panel of 442 kinases (Homo sapiens, UniProt P17948).
T2 construct: purchased KINOMEscan
The assay is classed as binding. Conditions: Compound Concentration 10 µM.
Text: as §1

The structures appear in SMILES notation.

T2 sequence (P17948 27-1338): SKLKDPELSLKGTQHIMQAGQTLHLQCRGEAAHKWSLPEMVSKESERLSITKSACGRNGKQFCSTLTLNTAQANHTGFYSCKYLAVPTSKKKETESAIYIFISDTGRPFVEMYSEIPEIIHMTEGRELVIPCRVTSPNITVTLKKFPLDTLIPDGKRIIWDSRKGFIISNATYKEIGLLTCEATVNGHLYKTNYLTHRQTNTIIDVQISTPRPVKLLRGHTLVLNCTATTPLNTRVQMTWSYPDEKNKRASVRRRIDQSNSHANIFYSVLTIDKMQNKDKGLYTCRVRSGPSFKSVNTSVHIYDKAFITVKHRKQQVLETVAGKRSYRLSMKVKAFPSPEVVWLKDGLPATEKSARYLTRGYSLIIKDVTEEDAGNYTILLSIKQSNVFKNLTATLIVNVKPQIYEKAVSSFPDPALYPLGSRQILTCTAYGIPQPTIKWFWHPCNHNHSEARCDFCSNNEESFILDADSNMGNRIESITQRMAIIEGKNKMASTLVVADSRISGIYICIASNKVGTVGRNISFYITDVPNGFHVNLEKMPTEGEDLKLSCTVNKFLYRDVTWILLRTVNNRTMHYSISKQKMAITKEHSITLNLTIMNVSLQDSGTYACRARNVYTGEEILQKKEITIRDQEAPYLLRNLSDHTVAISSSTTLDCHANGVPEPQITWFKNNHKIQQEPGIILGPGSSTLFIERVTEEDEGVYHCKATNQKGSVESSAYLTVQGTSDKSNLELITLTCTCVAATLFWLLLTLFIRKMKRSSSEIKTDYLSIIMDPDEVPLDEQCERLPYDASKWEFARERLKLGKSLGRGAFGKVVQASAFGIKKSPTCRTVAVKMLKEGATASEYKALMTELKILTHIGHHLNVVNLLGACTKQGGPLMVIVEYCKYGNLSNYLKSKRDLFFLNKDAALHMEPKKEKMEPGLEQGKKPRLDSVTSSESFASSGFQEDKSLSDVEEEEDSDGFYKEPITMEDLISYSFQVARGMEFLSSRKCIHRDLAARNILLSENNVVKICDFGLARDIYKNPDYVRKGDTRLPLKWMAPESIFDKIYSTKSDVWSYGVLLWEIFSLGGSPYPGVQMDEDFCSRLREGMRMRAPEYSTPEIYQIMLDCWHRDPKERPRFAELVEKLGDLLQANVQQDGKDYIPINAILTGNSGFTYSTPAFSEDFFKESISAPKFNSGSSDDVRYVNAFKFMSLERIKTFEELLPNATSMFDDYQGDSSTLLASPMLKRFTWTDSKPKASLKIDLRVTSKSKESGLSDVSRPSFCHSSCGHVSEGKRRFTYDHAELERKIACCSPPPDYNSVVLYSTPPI

Consider `CCOc1cc(C(=O)N2CCC(N3CCN(C)CC3)CC2)ccc1Nc1ncc2c(n1)N(C1CCCC1)c1ccccc1C(=O)N2C` [Compound 26], for which the “% Ctrl, TAOK1” value at panel of 442 kinases [1] is on record as 79 % Ctrl. Besides, the “KINOMEscan: FLT1” value at panel of 442 kinases [2] amounted to 100.
For `COc1cc(C(=O)N2CCC(N3CCN(C)CC3)CC2)ccc1Nc1ncc2c(n1)N(C)c1ccccc1C(=O)N2C` [15 (LRRK2-IN-1)] the same measures were 28 % Ctrl and 100.
The corresponding values for `COc1cc(C(=O)N2CCC(N3CCN(C)CC3)CC2)ccc1Nc1ncc2c(n1)N(C1CCCC1)c1ccccc1C(=O)N2C` [Compound 25, 11-cyclopentyl-2-((2-methoxy-4-(4-(4-methylpiperazin-1-yl)piperidine-1-carbonyl)phenyl)amino)-5-methyl-5H-benzo[e]pyrimido[5,4-b][1,4]diazepin-6(11H)-one] are 51 % Ctrl and 100.

The values are drawn from article PMC3914206.
